Results from PubChem BioAssay AID248 (DTP/NCI, 2004).
Where “and” joins values, the source holds several entries; their conditions need not be identical. Equal entries are not always repeated. Inconclusive results and toxic doses are left out. Rule as the data show it: active = T/C of 150% or more; inactive = T/C below 125%.

Test system: L1210 leukemia ip in BDF1 mice, survival T/C
Assay: NCI In Vivo Anticancer Drug Screen. Data for tumor model L1210 Leukemia (intraperitoneal) in B6D2F1 (BDF1) mice
Conditions: endpoint: mean survival time, higher = longer survival
Summary of the method: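 Mice bearing the transplanted tumor received compound or vehicle. Survival of the treated group was divided by that of the vehicle-treated control group to give the ratio.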

[1] = dose: 100.0 mg/kg/injection, schedule: Q01DX001 (ip), vehicle: saline
[2] = dose: 200.0 mg/kg/injection, schedule: Q01DX001 (ip), vehicle: saline
[3] = dose: 400.0 mg/kg/injection, schedule: Q01DX001 (ip), vehicle: saline
[4] = dose: 50.0 mg/kg/injection, schedule: Q01DX009 (ip), vehicle: saline with Tween-80
[5] = dose: 100.0 mg/kg/injection, schedule: Q01DX009 (ip), vehicle: saline with Tween-80
[6] = dose: 200.0 mg/kg/injection, schedule: Q01DX009 (ip), vehicle: saline with Tween-80
[7] = dose: 25.0 mg/kg/injection, schedule: Q04DX003 (ip), vehicle: Klucel (hydroxypropylcellulose) (HPC)
[8] = dose: 50.0 mg/kg/injection, schedule: Q04DX003 (ip), vehicle: Klucel (hydroxypropylcellulose) (HPC)
[9] = dose: 100.0 mg/kg/injection, schedule: Q04DX002 (ip), vehicle: saline with Tween-80
[10] = dose: 200.0 mg/kg/injection, schedule: Q04DX002 (ip), vehicle: saline with Tween-80
[11] = dose: 400.0 mg/kg/injection, schedule: Q04DX002 (ip), vehicle: saline with Tween-80
[12] = dose: 100.0 mg/kg/injection, schedule: Q04DX003 (ip), vehicle: saline with Tween-80
[13] = dose: 200.0 mg/kg/injection, schedule: Q04DX003 (ip), vehicle: saline with Tween-80
[14] = dose: 400.0 mg/kg/injection, schedule: Q04DX003 (ip), vehicle: saline with Tween-80
[15] = dose: 100.0 mg/kg/injection, schedule: Q04DX002 (ip), vehicle: Klucel (hydroxypropylcellulose) (HPC)
[16] = dose: 200.0 mg/kg/injection, schedule: Q04DX002 (ip), vehicle: Klucel (hydroxypropylcellulose) (HPC)
[17] = dose: 400.0 mg/kg/injection, schedule: Q04DX002 (ip), vehicle: Klucel (hydroxypropylcellulose) (HPC)
[18] = dose: 100.0 mg/kg/injection, schedule: Q01DX009 (ip), vehicle: Klucel (hydroxypropylcellulose) (HPC)

Measured: T/C

Oc1ccc(-c2cc(O)c(-c3ccc(O)cc3)cc2O)cc1
inactive: dose: 100.0 mg/kg/injection, schedule: Q01DX009 (ip), vehicle: saline 95 % of control

CC(C)(C)C#N
inactive: [1] 109 % of control | [2] 101 % of control | [3] 95 % of control

Cc1cc(OCCOC(=O)Nc2ccc(C)c([N+](=O)[O-])c2)ccc1Cl
inactive: [4] 93 % of control | [5] 87 % of control | [6] 87 % of control

CN1CC(C(=O)NCc2ccccc2)CC2c3cccc4[nH]cc(c34)CC21 (stereo not given)
inactive: [7] 96 % of control | [8] 91 % of control | dose: 100.0 mg/kg/injection, schedule: Q04DX003 (ip), vehicle: Klucel (hydroxypropylcellulose) (HPC) 96 % of control | dose: 200.0 mg/kg/injection, schedule: Q04DX003 (ip), vehicle: Klucel (hydroxypropylcellulose) (HPC) 89 % of control | dose: 400.0 mg/kg/injection, schedule: Q04DX003 (ip), vehicle: Klucel (hydroxypropylcellulose) (HPC) 91 % of control

CC(C)(C)c1cc(CN2CCCCC2)cc(C(C)(C)C)c1O
inactive: dose: 12.5 mg/kg/injection, schedule: Q04DX003 (ip), vehicle: Klucel (hydroxypropylcellulose) (HPC) 101 % of control | [7] 114 % of control | [8] 97 % of control

O=c1oc2c(CN3CCOCC3)c(O)ccc2c2c1CCCC2
inactive: dose: 100.0 mg/kg/injection, schedule: Q01DX001 (ip), vehicle: carboxymethylcellulose (CMC) 86 % of control | dose: 200.0 mg/kg/injection, schedule: Q01DX001 (ip), vehicle: carboxymethylcellulose (CMC) 96 % of control | dose: 400.0 mg/kg/injection, schedule: Q01DX001 (ip), vehicle: carboxymethylcellulose (CMC) 91 % of control

O=C(CC(=O)c1ccccc1)c1ccccc1
inactive: [9] 97 % of control | [10] 102 % of control | [11] 94 % of control

Cc1ccc(C(=O)CCCCl)c(C)c1
inactive: [12] 99 % of control | [13] 94 % of control | [14] 96 % of control

CC(=O)N1CCN(C(C)=O)C1=S
inactive: dose: 100.0 mg/kg/injection, schedule: Q01DX001 (ip), vehicle: Klucel (hydroxypropylcellulose) (HPC) 96 % of control | dose: 200.0 mg/kg/injection, schedule: Q01DX001 (ip), vehicle: Klucel (hydroxypropylcellulose) (HPC) 95 % of control | dose: 400.0 mg/kg/injection, schedule: Q01DX001 (ip), vehicle: Klucel (hydroxypropylcellulose) (HPC) 98 % of control

[CH3][Sn]([c]1ccccc1)([c]1ccccc1)[c]1ccccc1
inactive: [9] 91 % of control | [10] 95 % of control | [11] 103 % of control

NC(=S)N/N=C/c1cc(=O)[nH]c(=O)[nH]1
inactive: dose: 50.0 mg/kg/injection, schedule: Q01DX001 (ip), vehicle: saline 93 % of control | [1] 95 % of control | [2] 98 % of control | [3] 95 % of control

Cc1cc(O)ccc1SC#N
inactive: dose: 3.12 mg/kg/injection, schedule: Q04DX003 (ip), vehicle: saline + alcohol 97 % of control | dose: 6.25 mg/kg/injection, schedule: Q04DX003 (ip), vehicle: saline + alcohol 101 % of control | dose: 12.5 mg/kg/injection, schedule: Q04DX003 (ip), vehicle: saline + alcohol 101 % of control

c1ccc(-c2coc(-c3ccccc3)c2)cc1
inactive: [15] 101 % of control | [16] 101 % of control | [17] 97 % of control

O=[N+]([O-])c1ccc(NC(=S)Nc2cc([N+](=O)[O-])ccc2Cl)cc1
inactive: [4] 98 % of control | [5] 91 % of control | [6] 91 % of control

COC(OC)C1OC(C)(C)OC1C(OS(=O)(=O)c1ccc(C)cc1)C1COC(C)(C)O1 (stereo not given)
inactive: [12] 97 % of control | [13] 91 % of control | [14] 89 % of control

O=[N+]([O-])c1cccc(OCCCOc2ccc(S(=O)(=O)F)cc2)c1
inactive: dose: 100.0 mg/kg/injection, schedule: Q01DX001 (ip), vehicle: saline with Tween-80 96 % of control | dose: 200.0 mg/kg/injection, schedule: Q01DX001 (ip), vehicle: saline with Tween-80 98 % of control | dose: 400.0 mg/kg/injection, schedule: Q01DX001 (ip), vehicle: saline with Tween-80 90 % of control

CC(C)CCOC(=O)N(C)c1ccccc1
inactive: dose: 75.0 mg/kg/injection, schedule: Q04DX002 (ip), vehicle: Klucel (hydroxypropylcellulose) (HPC) 101 % of control | dose: 150.0 mg/kg/injection, schedule: Q04DX002 (ip), vehicle: Klucel (hydroxypropylcellulose) (HPC) 105 % of control | dose: 300.0 mg/kg/injection, schedule: Q04DX002 (ip), vehicle: Klucel (hydroxypropylcellulose) (HPC) 105 % of control

OC12CC3CC(CC(C3)C1)C2
inactive: [1] 95 % of control | [2] 106 % of control | [3] 103 % of control

CCCCCC/C(=N/NC(N)=O)C(OC)OC
inactive: dose: 100.0 mg/kg/injection, schedule: Q01DX001 (ip), vehicle: other 94 % of control | dose: 200.0 mg/kg/injection, schedule: Q01DX001 (ip), vehicle: other 105 % of control | dose: 400.0 mg/kg/injection, schedule: Q01DX001 (ip), vehicle: other 100 % of control

CNC(=O)Oc1ccccc1C(N)=O
inactive: dose: 25.0 mg/kg/injection, schedule: Q01DX009 (ip), vehicle: Klucel (hydroxypropylcellulose) (HPC) 110 % of control | dose: 50.0 mg/kg/injection, schedule: Q01DX009 (ip), vehicle: Klucel (hydroxypropylcellulose) (HPC) 96 % of control | [18] 96 % of control and 92 % of control

NC(=O)OCC#CCN1CCCC1
inactive: dose: 5.0 mg/kg/injection, schedule: Q04DX003 (ip), vehicle: saline with Tween-80 96 % of control | dose: 10.0 mg/kg/injection, schedule: Q04DX003 (ip), vehicle: saline with Tween-80 98 % of control | dose: 20.0 mg/kg/injection, schedule: Q04DX003 (ip), vehicle: saline with Tween-80 93 % of control

NC(=O)NC(O)C(Cl)(Cl)Cl (stereo not given)
inactive: [18] 100 % of control | dose: 200.0 mg/kg/injection, schedule: Q01DX009 (ip), vehicle: Klucel (hydroxypropylcellulose) (HPC) 100 % of control | dose: 400.0 mg/kg/injection, schedule: Q01DX009 (ip), vehicle: Klucel (hydroxypropylcellulose) (HPC) 93 % of control

Cc1ccccc1-n1cccc1C(=O)O
inactive: [15] 89 % of control | [16] 96 % of control | [17] 86 % of control
